In US20110217265A1, “Screening for Inhibitors of HCV Amphipathic Helix (AH) Function” (priority 2008, published 2011):

Tests used:
2a HCV RNA replicon = 2a HCV RNA replicon assay (FL-J6/JFH-5'C19Rluc2AUbi, luciferase); assay type: cell-based, Hepatitis C Virus genotype 2a; conditions: Hepatitis C virus, read-out: 2a (%) Percent of virus activity remaining in the presence of the compound
Source text: Plasmids. Bart79I, a high-efficiency subgenomic replicon of HCV (28), harbors the neomycin resistance gene (neo) and the HCV nonstructural proteins. The Bart-Luciferase plasmid, Bart79I-luc, was cloned from the Bart791 parent (29) and the pGL3-Basic parent (Promega). In brief, a NotI site was introduced after the 15th amino acid of Core in Bart791 using PCR mutagenesis. The plasmid pcDNA3.1-NS4B, which encodes the Con1 NS4B sequence and was used to study the protein stability of the wild type and mutant NS4Bs, was described previously. To introduce the M2 mutation into the 4BAH2 of plasmids encoding HCV replicons or NS4B, the nucleotide sequence GCG that encodes for alanine at NS4B amino acid position 51 was changed to GAG (encoding for glutamate) and the nucleotide sequence TGG that encodes for tryptophan at amino acid position 55 was changed to GAT (encoding for aspartate) through the use of Quick-ChangeTMXL site-directed mutagenesis kit (Stratagene, La Jolla, Calif.) as described by the manufacturer and confirmed by sequencing. FL-J6/JFH-5′C19Rluc2AUbi, which is a monocistronic, full-length HCV genome that expresses Renilla luciferase (Rluc) and was derived from the previously described infectious genotype 2a HCV genome J6/JFH1.
(§1) Antiviral Assays of Compounds. Subconfluent Huh7.5 cells were trypsinized and collected by centrifugation at 700 g for 5 min. The cells were then washed three times in ice-cold RNasefree PBS buffer (BioWhittaker) and resuspended at 1.5×10^7 cells·ml^−1 in PBS buffer. Wild-type FL-J6/JFH-5′C19Rluc2AUbi and Bart79I-luc RNAs for electroporation were generated by in vitro transcription of XbaI (FL-J6/JFH-5′C19Rluc2AUbi) and ScaI (Bart791-luc)-linearized DNA templates using the T7 MEGAscript kit (Ambion), followed by phenol-chloroform purification and DEPC water suspension, 5 μg of RNA were mixed with 400 μl of washed Huh7.5 cells in a 2-mm-gap cuvette (BTX) and immediately pulsed (0.82 kV (FL-J6/JFH-5′C19Rluc2AUbi) and 0.68 kV (Bart79I-luc), five […] pulses) with a BTX-830 electroporator. After 10 min recovery at 25° C., pulsed cells were diluted into 20 ml of pre-warmed growth medium. Cells from several electroporations were pooled to a common stock and seeded in 96-well plates (17,000-20,000 cells per well). After 24 hr, compounds were added to the cells and media changes were performed daily with fresh compounds. After 72 hr of treatment, cells were incubated for 2 hr at 37° C. in the presence of 10% Alamar Blue reagent (TREK Diagnostic Systems) to assess for cytotoxicity. Plates were then scanned and fluorescence was detected by using a FLEXstation II 384 (Molecular Devices). The signal was normalized relative to untreated samples. Viral RNA replication was determined using Renilla (FL-J6/JFH-5′C19Rluc2AUbi) or firefly (Bart791-luc) luciferase assays, according to the manufacturer's (Promega) directions. The same samples subjected to the viability assay described below were analyzed in this assay. According to the manufacturer protocol, cells were washed with PBS buffer and shaken at room temperature for 15 min in 20 μl of lysis buffer. Reporter assays were performed directly in the wells of the culture plates by injecting 100 μl of the assay substrate into each well. Luminescence was measured over 10 seconds with a 2-second delay using a Berthold LB 96 V luminometer. Signal was normalized relative to untreated samples or samples grown in the presence of the corresponding concentration of DMSO. Experiments were repeated three times, each time with 4 replicates.

Huh7.5 cells = experiment: Alamar Blue cell viability assay; assay type: cell-based, human
Procedure: as §1, with “Plates were then scanned and fluorescence was detected by using a FLEXstation II 384 (Molecular Devices).” left out

hERG = hERG (Homo sapiens, UniProt Q12809); experiment: hERG IC50
hERG, sequence (Q12809 whole entry): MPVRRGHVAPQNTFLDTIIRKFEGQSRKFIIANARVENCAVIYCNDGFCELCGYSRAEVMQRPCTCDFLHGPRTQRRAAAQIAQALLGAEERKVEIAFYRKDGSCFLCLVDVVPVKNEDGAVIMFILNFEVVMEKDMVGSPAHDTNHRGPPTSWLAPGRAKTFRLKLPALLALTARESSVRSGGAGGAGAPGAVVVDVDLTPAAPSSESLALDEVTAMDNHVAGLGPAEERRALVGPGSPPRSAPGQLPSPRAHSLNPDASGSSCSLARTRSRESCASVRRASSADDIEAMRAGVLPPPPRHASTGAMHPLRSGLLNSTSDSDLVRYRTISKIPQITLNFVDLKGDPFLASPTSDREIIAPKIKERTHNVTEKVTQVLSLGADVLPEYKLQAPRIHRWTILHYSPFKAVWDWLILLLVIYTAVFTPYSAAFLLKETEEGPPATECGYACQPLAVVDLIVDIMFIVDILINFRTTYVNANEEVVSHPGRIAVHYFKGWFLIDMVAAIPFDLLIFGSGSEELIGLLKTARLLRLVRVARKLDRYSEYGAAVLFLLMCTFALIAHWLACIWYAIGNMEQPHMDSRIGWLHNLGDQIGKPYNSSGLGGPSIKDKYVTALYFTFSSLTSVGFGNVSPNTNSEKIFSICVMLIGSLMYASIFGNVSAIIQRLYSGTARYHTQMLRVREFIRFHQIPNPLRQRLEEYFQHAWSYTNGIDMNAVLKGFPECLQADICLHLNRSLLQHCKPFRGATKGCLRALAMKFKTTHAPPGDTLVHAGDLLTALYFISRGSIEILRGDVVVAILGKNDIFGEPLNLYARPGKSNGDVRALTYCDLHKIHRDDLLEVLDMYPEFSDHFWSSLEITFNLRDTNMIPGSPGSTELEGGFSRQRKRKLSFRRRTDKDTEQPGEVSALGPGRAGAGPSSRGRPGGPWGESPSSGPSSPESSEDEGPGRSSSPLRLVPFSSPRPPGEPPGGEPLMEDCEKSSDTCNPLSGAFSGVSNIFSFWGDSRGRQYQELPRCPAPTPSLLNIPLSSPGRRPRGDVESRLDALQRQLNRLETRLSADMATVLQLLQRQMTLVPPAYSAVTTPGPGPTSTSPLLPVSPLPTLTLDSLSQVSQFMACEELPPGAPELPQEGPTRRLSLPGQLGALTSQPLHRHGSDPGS

HCV 1b RNA replicon = experiment: 1b HCV RNA replicon assay, Huh7 cell line with stable luciferase reporter; assay type: cell-based, Hepatitis C Virus genotype 1b; conditions: Huh7, stable LUC reporter

| Structure (SMILES) | activity at 5 µM (2a HCV RNA replicon) | activity at 10 µM (2a HCV RNA replicon) | Cell Viability (%), alamar blue (Huh7.5 cells; 5 μM) | Cell Viability (%), alamar blue (Huh7.5 cells; 10 μM) | IC50 (hERG) | IC50 (HCV 1b RNA replicon; Hepatitis C virus, Huh-7) | 1b assay IC50 (HCV 1b RNA replicon) |
| --- | --- | --- | --- | --- | --- | --- | --- |
| CC(C)CN(C)c1nc(N)c(C(=O)Nc2cccnc2)nc1Cl.Cl [ID 202, 3-amino-6-chloro-5-(isobutyl(methyl)amino)-N-(pyridin-3-yl)pyrazine-2-carboxamide hydrochloride] | 6% | 4% | 48% | 43% | 1.5 µM |  |  |
| CC(C)CN(C)c1nc(N)c(C(=O)NC2CCCNC2)nc1Cl.O=C(O)C(F)(F)F (centres unmarked) [ID 312, 3-amino-6-chloro-5-(isobutyl(methyl)amino)-N-(piperidin-3-yl)pyrazine-2-carboxamide 2,2,2-trifluoroacetate] | 21% | 9% | 76% | 53% | 4 µM | 44 µM |  |
| Cc1ccncc1NC(=O)c1nc(Cl)c(N2CCCCC2)nc1N [ID 415, 3-amino-6-chloro-N-(4-methylpyridin-3-yl)-5-(piperidin-1-yl)pyrazine-2-carboxamide 2,2,2-trifluoroacetate] | 27% | 10% | 71% | 65% |  |  | inactive |
| Cc1ccncc1NC(=O)c1nc(Cl)c(NCC(C)C)nc1N [ID 464, 3-amino-6-chloro-5-(isobutylamino)-N-(4-methylpyridin-3-yl)pyrazine-2-carboxamide 2,2,2-trifluoroacetate] | 64% | 44% | 95% | 85% | > 10 µM |  |  |
| Cc1ccncc1NC(=O)c1nc(Cl)c(N(C)c2ccccc2)nc1N [ID 465, 3-amino-6-chloro-5-(methyl(phenyl)amino)-N-(4-methylpyridin-3-yl)pyrazine-2-carboxamide 2,2,2-trifluoroacetate] | 60% | 31% | 89% | 78% | > 10 µM |  |  |
